Assay results taken from patent US20260356901A1, “ONCOLYTIC PEPTIDES” (The Johns Hopkins University, priority 2023, published 2026).
Where two headings read alike, the source gives them in different places. Square brackets hold non-standard residues; d marks the D form. Ends that are not written are not given here. Peptide text beside a SMILES is read from it. * marks the point of attachment. Dip = N[C@H](C(=O)O)C(c1ccccc1)c1ccccc1; Cbz = O=C(OCc1ccccc1)*; CH2F = FC*

Tests used:
Solubility in water = assay type: physicochemical; conditions: data not shown
Excerpt: Peptides The peptides were synthesized by Genscript (Piscataway, NJ) using a solid-phase peptide synthesis technique. The purity was >90% as verified by HPLC and MS analyses. The peptides were solubilized in water.

[1] = tested on: NIH/3T3 normal fibroblasts; test: LDH release assay in NIH/3T3 cells; assay type: cell-based, murine; conditions: 6 hours
Method: (§1) FIG. 3A is a graph of cell viability of 4T1 murine triple negative breast cancer cells (TNBC) after 100 μM or 20 μM CKS1 treatment measured by real-time cell analyzer (RTCA). Means±SEM, representative of N=3. FIG. 3B is a graph of lactate dehydrogenase (LDH) release in 4T1 cells pre-treated with 50 μM pan-caspase inhibitor Z-VAD for 30 minutes or 50 μM RIPK1 inhibitor Nec-1s for 30 minutes then treated with 100 μM CKS1 for 6 hours. LDH release in the supernatant was measured by the CyQUANT LDH cytotoxicity assay. Means±SEM, N=3, Dunnett's test (***p<0.005). FIGS. 3C-3G are graphs of LDH release in human osteosarcoma U2OS cells, murine fibrosarcoma MCA205 cells, murine colon carcinoma CT26 cells, murine normal NIH/3T3 fibroblasts, and HUVECs, respectively, treated with the indicated concentration of CKS1 for 6 hours. The release of LDH in the supernatant was measured and was normalized to the amount of LDH released from cells treated with lysis buffer. Means±SEM, N=3, Dunnett's test (**p<0.01, ***p<0.005). FIG. 3H is a graph of the incorporation of BrdU in HUVECs treated with CKS1. Means±SEM, N=3, Dunnett's test (**p<0.01, ***p<0.005).
(§2) LDH assay 1.5×10^4 cells were seeded in a 96 well plate and incubated overnight. The cells were washed once, and the medium was replaced with serum free media. Cells were treated for the indicated time and concentration. […]

U2OS cells = test: LDH release assay in U2OS cells; assay type: cell-based, human; conditions: 6 hours
Method: as §1, §2

MCA205 cells = test: LDH release assay in MCA205 cells; assay type: cell-based, murine; conditions: MCA205, 6 hours
Method: as §1, §2

CT26 cells = test: LDH release assay in CT26 cells; assay type: cell-based, murine; conditions: CT26, 6 hours
Method: as §1, §2

HUVECs = test: LDH release assay in HUVECs; assay type: cell-based, human; conditions: 6 hours
Method: as §1, §2

healthy cells = test: LDH assay against cancer cells not included in NCI-60 and healthy cells; assay type: cell-based
Method: LDH assay 1.5×10^4 cells were seeded in a 96 well plate and incubated overnight. The cells were washed once, and the medium was replaced with serum free media. Cells were treated for the indicated time and concentration. CyQUANT LDH cytotoxicity assay (Invitrogen, Carlsbad, CA) was used following the manufacturer's instructions.

4T1 cells = test: LDH release assay (CyQUANT) in 4T1 cells; assay type: cell-based, murine; conditions: pre-treated 50 μM inhibitor 30 minutes, then 100 μM CKS1 6 hours
Method: FIG. 3A is a graph of cell viability of 4T1 murine triple negative breast cancer cells (TNBC) after 100 μM or 20 μM CKS1 treatment measured by real-time cell analyzer (RTCA). Means±SEM, representative of N=3. FIG. 3B is a graph of lactate dehydrogenase (LDH) release in 4T1 cells pre-treated with 50 μM pan-caspase inhibitor Z-VAD for 30 minutes or 50 μM RIPK1 inhibitor Nec-1s for 30 minutes then treated with 100 μM CKS1 for 6 hours. LDH release in the supernatant was measured by the CyQUANT LDH cytotoxicity assay. Means±SEM, N=3, Dunnett's test (***p<0.005). […] The release of LDH in the supernatant was measured and was normalized to the amount of LDH released from cells treated with lysis buffer. […]
FIG. 5A is a graph of the release of LDH in the supernatant measured after treating 4T1 cells with 100 μM of the indicated peptides for 6 hours. […]
To determine whether CKS1 functions as an oncolytic peptide, the cell viability of 4T1 murine breast cancer cells was observed after CKS1 treatment using xCELLigence Real-Time Cell Analyzer (Agilent). In this method, the binding of cells to gold electrodes is detected as electrical impedance and graphed as arbitrary units of cell index in real time. […] The release of lactate dehydrogenase (LDH) was also quantified in the culture media after CKS1 treatment. […]

[2] = other reported oncolytic peptides; cited from earlier work

IVKKIIEKMLNS [SEQ ID NO: 42, IVKKIIEKMLNS]
solubility in water (Solubility in water): not soluble in water

NGRKACLNPASPIVKKIIEKMLNS [CKS1]
cell death (LDH release) in normal cells [1]: did not induce cell death
cytotoxicity (LDH release) (U2OS cells): effective
solubility in water (Solubility in water): high solubility in water
cytotoxicity (LDH release) (MCA205 cells): effective
cytotoxicity (LDH release) (CT26 cells): effective
cell death (LDH release) in normal cells (HUVECs): did not induce cell death

NGRKAKLNPASIVKKIIKKILKS [NF27]
toxicity against healthy cells compared to cancer cells (healthy cells): significantly lower toxicity

CC(NC(=O)C(NC(=O)OCc1ccccc1)C(C)C)C(=O)NC(CC(=O)O)C(=O)CF (stereo not drawn) [Z-VAD] (Cbz-Val-Ala-Asp-CH2F; configuration not given here)
inhibition of CKS1-induced LDH release by pretreatment (4T1 cells): did not inhibit the release of LDH

NCCCC[C@H](NC(=O)[C@@H](NC(=O)[C@H](Cc1c[nH]c2ccccc12)NC(=O)[C@H](CCCCN)NC(=O)[C@H](CCCCN)NC(=O)[C@H](Cc1c[nH]c2ccccc12)NC(=O)[C@H](Cc1c[nH]c2ccccc12)NC(=O)[C@H](CCCCN)NC(=O)[C@@H](N)CCCCN)C(c1ccccc1)c1ccccc1)C(N)=O [LTX-315] (H-KKWWKKW[Dip]K-NH2)
solubility in water [2]: not soluble in water

CN1C(=O)NC(Cc2c[nH]c3c(Cl)cccc23)C1=O (centres unmarked) [Nec-1s, necrostatin-1 stable]
inhibition of CKS1-induced LDH release by pretreatment (4T1 cells): did not inhibit the release of LDH
